Results: US20110236504A1, “VERSATILE DISINFECTANT” (priority 2008, published 2011)
Where two headings read alike, the source gives them in different places.

Legend:
E. coli O-157 [1] = experiment: Metal ion or food preservative added to growth medium, viable count; type: cell-based; conditions: metal ion in growth medium
Experimental: (§1) To a standard medium for counting viable bacteria described below, each metal ion with varied concentration was added. […] Then, the number of viable bacteria was counted with time in a common procedure.
(§2) Sample bacteria: S. aureus 209P as a representative of Gram-positive bacteria • E. coli 0-157 as a representative of Gram-negative bacteria
(§3) Standard medium for counting viable bacteria: yeast extract 2.5 g, peptone 5 g, glucose 1 g, agar 15 g, pH 7.2

S. aureus 209P = experiment: as above; type: cell-based
Experimental: as §1, §2, §3

[2] = system: sample bacteria (S. aureus 209P, E. coli O-157); experiment: Death rate over time, food preservative in purified water pH 3.0
E. coli O-157 [3] = experiment: Metal ion or food preservative added to growth medium, viable count; type: cell-based; conditions: food preservative in growth medium
[4] = system: pus mainly including antibiotic resistant MRSA; conditions: Pus (MRSA) 4 × 10^9/g
[5] = system: viable bacteria in sputum; experiment: Sterilization effect on specimen: sputum; conditions: Sputum 2 × 10^9/g
[6] = system: intestinal bacteria in feces; experiment: Sterilization effect on specimen: feces; conditions: Feces 1.5 × 10^11/g
[7] = system: pus mainly including antibiotic resistant Pseudomonas aeruginosa (MDRP); conditions: Pus (MDRP) 5 × 10^9/g
[8] = system: spores of Bacillus species; experiment: Spore decay time and decay rate in dried soil, aerobic culture; type: cell-based; conditions: for Spore decay rate, Spores of Bacillus species: 1 g dried soil in 10 ml, aerobic culture
Experimental: (§4) Sands in a sandbox in a park and riverside soil were collected and mixed. The mixture was dried with heated air at 80 to 90° C. for 6 hours. Then, 1 g of the dried mixture was added into water and immediately filtered with a filter. A part of the filtrate was applied onto a glass slide, and spores were stained in a common procedure. The number of stained spores was counted and the number of spores contained in 1 g of soil was determined. Simultaneously, the spores were aerobically (Bacillus species proliferated) and anaerobically (Clostridium species proliferated) cultured, and each ratio was determined.
(§5) Then, into 10 ml of the sample disinfectant, 1 g of the dried soil was added. Some of the mixture was collected with time, and cultured aerobically and anaerobically. The number of growing colonies was counted to determine the decay rate of the spores.

[9] = system: spores of Clostridium species; experiment: Spore decay time and decay rate in dried soil, anaerobic culture; type: cell-based; conditions: for Spore decay rate, Spores of Clostridium species: 1 g dried soil in 10 ml, anaerobic culture
Experimental: as §4, §5

[10] = food preservative in growth medium

## O=[N+]([O-])[O-].[Ag+] [Ag^+, AgNO3]
E. coli O-157 [1]
  (a) Antiproliferative activity, concentration: 0.05~2 ppm
  (b) Bacteriostatic activity, concentration: 2~4 ppm
  (c) Bactericidal activity, concentration: 4 ppm>

## O=C(O)c1ccccc1 [Benzoic acid]
S. aureus 209P; [10]
  (a) Antiproliferative activity, concentration: 25~200 ppm
  (b) Bacteriostatic activity, concentration: 180 ppm>
[2]; 50 ppm, 5 min
  Death rate: 0
[2]; 50 ppm, 10 min
  Death rate: 0
[2]; 50 ppm, 15 min
  Death rate: 0
[2]; 50 ppm, 30 min
  Death rate: 1
[2]; 50 ppm, 60 min
  Death rate: 5
[2]; 50 ppm, 90 min
  Death rate: 10
[2]; 50 ppm, 120 min
  Death rate: 12
[2]; 200 ppm, 5 min
  Death rate: 0
[2]; 200 ppm, 10 min
  Death rate: 0
[2]; 200 ppm, 15 min
  Death rate: 0
[2]; 200 ppm, 30 min
  Death rate: 2
[2]; 200 ppm, 60 min
  Death rate: 7
[2]; 200 ppm, 90 min
  Death rate: 10
[2]; 200 ppm, 120 min
  Death rate: 12
[2]; 500 ppm, 5 min
  Death rate: 0
[2]; 500 ppm, 10 min
  Death rate: 0
[2]; 500 ppm, 15 min
  Death rate: 1
[2]; 500 ppm, 30 min
  Death rate: 3
[2]; 500 ppm, 60 min
  Death rate: 8
[2]; 500 ppm, 90 min
  Death rate: 12
[2]; 500 ppm, 120 min
  Death rate: 15
E. coli O-157 [3]
  (a) Antiproliferative activity, concentration: 25~200 ppm
  (b) Bacteriostatic activity, concentration: 180 ppm>

## O.O.O.O.O.O.[Cl-].[Cl-].[Co+2] [Co^2+, CoCl2•6H2O]
S. aureus 209P; metal ion in growth medium
  (c) Bactericidal activity, concentration: 500 ppm>
  Acceleration of growth, concentration: 20 ppm<
E. coli O-157 [1]
  (a) Antiproliferative activity, concentration: 100~250 ppm
  (b) Bacteriostatic activity, concentration: 220~500 ppm
  (c) Bactericidal activity, concentration: 500 ppm>
  Acceleration of growth, concentration: 25 ppm<

## CCOC(=O)c1ccc(O)cc1 [Ethyl para-hydroxybenzoate]
S. aureus 209P; [10]
  (a) Antiproliferative activity, concentration: 50~300 ppm
  (b) Bacteriostatic activity, concentration: 250 ppm>
[2]; 50 ppm, 5 min
  Death rate: 0
[2]; 50 ppm, 10 min
  Death rate: 0
[2]; 50 ppm, 15 min
  Death rate: 0
[2]; 50 ppm, 30 min
  Death rate: 2
[2]; 50 ppm, 60 min
  Death rate: 5
[2]; 50 ppm, 90 min
  Death rate: 8
[2]; 50 ppm, 120 min
  Death rate: 12
[2]; 200 ppm, 5 min
  Death rate: 0
[2]; 200 ppm, 10 min
  Death rate: 0
[2]; 200 ppm, 15 min
  Death rate: 0
[2]; 200 ppm, 30 min
  Death rate: 2
[2]; 200 ppm, 60 min
  Death rate: 5
[2]; 200 ppm, 90 min
  Death rate: 10
[2]; 200 ppm, 120 min
  Death rate: 12
[2]; 500 ppm, 5 min
  Death rate: 0
[2]; 500 ppm, 10 min
  Death rate: 0
[2]; 500 ppm, 15 min
  Death rate: 0
[2]; 500 ppm, 30 min
  Death rate: 2
[2]; 500 ppm, 60 min
  Death rate: 7
[2]; 500 ppm, 90 min
  Death rate: 12
[2]; 500 ppm, 120 min
  Death rate: 15
E. coli O-157 [3]
  (a) Antiproliferative activity, concentration: 40~300 ppm
  (b) Bacteriostatic activity, concentration: 230 ppm>

## O.O.O.O.O.O.O.O=S(=O)([O-])[O-].[Ni+2] [Ni^2+, NiSO4•7H2O]
S. aureus 209P; metal ion in growth medium
  (a) Antiproliferative activity, concentration: 25~150 ppm
  (b) Bacteriostatic activity, concentration: 120~300 ppm
  (c) Bactericidal activity, concentration: 300 ppm>
  Acceleration of growth, concentration: 5 ppm<
E. coli O-157 [1]
  (a) Antiproliferative activity, concentration: 20~170 ppm
  (b) Bacteriostatic activity, concentration: 150~350 ppm
  (c) Bactericidal activity, concentration: 350 ppm>
  Acceleration of growth, concentration: 10 ppm<

## C/C=C/C=C/C(=O)[O-].[K+] [Potassium sorbate]
S. aureus 209P; [10]
  (a) Antiproliferative activity, concentration: 35~250 ppm
  (b) Bacteriostatic activity, concentration: 200 ppm>
[2]; 50 ppm, 5 min
  Death rate: 0
[2]; 50 ppm, 10 min
  Death rate: 0
[2]; 50 ppm, 15 min
  Death rate: 0
[2]; 50 ppm, 30 min
  Death rate: 2
[2]; 50 ppm, 60 min
  Death rate: 5
[2]; 50 ppm, 90 min
  Death rate: 8
[2]; 50 ppm, 120 min
  Death rate: 12
[2]; 200 ppm, 5 min
  Death rate: 0
[2]; 200 ppm, 10 min
  Death rate: 0
[2]; 200 ppm, 15 min
  Death rate: 0
[2]; 200 ppm, 30 min
  Death rate: 2
[2]; 200 ppm, 60 min
  Death rate: 6
[2]; 200 ppm, 90 min
  Death rate: 10
[2]; 200 ppm, 120 min
  Death rate: 15
[2]; 500 ppm, 5 min
  Death rate: 0
[2]; 500 ppm, 10 min
  Death rate: 0
[2]; 500 ppm, 15 min
  Death rate: 1
[2]; 500 ppm, 30 min
  Death rate: 3
[2]; 500 ppm, 60 min
  Death rate: 7
[2]; 500 ppm, 90 min
  Death rate: 12
[2]; 500 ppm, 120 min
  Death rate: 18
E. coli O-157 [3]
  (a) Antiproliferative activity, concentration: 30~250 ppm
  (b) Bacteriostatic activity, concentration: 250 ppm>

## O=C([O-])c1ccccc1.[Na+] [Sodium benzoate]
S. aureus 209P; [10]
  (a) Antiproliferative activity, concentration: 40~300 ppm
  (b) Bacteriostatic activity, concentration: 250 ppm>
[2]; 50 ppm, 5 min
  Death rate: 0
[2]; 50 ppm, 10 min
  Death rate: 0
[2]; 50 ppm, 15 min
  Death rate: 0
[2]; 50 ppm, 30 min
  Death rate: 2
[2]; 50 ppm, 60 min
  Death rate: 5
[2]; 50 ppm, 90 min
  Death rate: 8
[2]; 50 ppm, 120 min
  Death rate: 10
[2]; 200 ppm, 5 min
  Death rate: 0
[2]; 200 ppm, 10 min
  Death rate: 0
[2]; 200 ppm, 15 min
  Death rate: 0
[2]; 200 ppm, 30 min
  Death rate: 2
[2]; 200 ppm, 60 min
  Death rate: 5
[2]; 200 ppm, 90 min
  Death rate: 10
[2]; 200 ppm, 120 min
  Death rate: 12
[2]; 500 ppm, 5 min
  Death rate: 0
[2]; 500 ppm, 10 min
  Death rate: 0
[2]; 500 ppm, 15 min
  Death rate: 1
[2]; 500 ppm, 30 min
  Death rate: 3
[2]; 500 ppm, 60 min
  Death rate: 8
[2]; 500 ppm, 90 min
  Death rate: 12
[2]; 500 ppm, 120 min
  Death rate: 15
E. coli O-157 [3]
  (a) Antiproliferative activity, concentration: 40~300 ppm
  (b) Bacteriostatic activity, concentration: 220 ppm>

## OCl [Sodium hypochlorite, sodium hypochlorite]
[4]; 5 min after addition
  The number of viable bacteria in specimen: 30000 g⁻¹
[4]; 15 min after addition
  The number of viable bacteria in specimen: 500 g⁻¹
[4]; 30 min after addition
  The number of viable bacteria in specimen: 100 g⁻¹
[4]; 60 min after addition
  The number of viable bacteria in specimen: 0 g⁻¹
[5]; 5 min after addition
  The number of viable bacteria in specimen: 20000 g⁻¹
[5]; 15 min after addition
  The number of viable bacteria in specimen: 10000 g⁻¹
[5]; 30 min after addition
  The number of viable bacteria in specimen: 10000 g⁻¹
[5]; 60 min after addition
  The number of viable bacteria in specimen: 5000 g⁻¹
[5]; 60 min after addition, listed as sodium hypochlorite
  The number of viable bacteria in specimen: 5000 g⁻¹
[6]; 5 min after addition
  The number of viable bacteria in specimen: 1e+08 g⁻¹
[6]; 15 min after addition
  The number of viable bacteria in specimen: 8e+06 g⁻¹
[6]; 30 min after addition
  The number of viable bacteria in specimen: 8e+06 g⁻¹
[6]; 60 min after addition
  The number of viable bacteria in specimen: 1e+07 g⁻¹
[6]; 60 min after addition, listed as hypochlorite
  The number of viable bacteria in specimen: 1e+07 g⁻¹
[7]; 5 min after addition
  The number of viable bacteria in specimen: 2000 g⁻¹
[7]; 15 min after addition
  The number of viable bacteria in specimen: 1000 g⁻¹
[7]; 30 min after addition
  The number of viable bacteria in specimen: 200 g⁻¹
[7]; 60 min after addition
  The number of viable bacteria in specimen: 100 g⁻¹
[8]; 1 min contact
  Spore decay rate, Spores of Bacillus species: 0%
[8]; 5 min contact
  Spore decay rate, Spores of Bacillus species: 0%
[8]; 10 min contact
  Spore decay rate, Spores of Bacillus species: 10%
[8]; 30 min contact
  Spore decay rate, Spores of Bacillus species: 30%
[8]; 60 min contact
  Spore decay rate, Spores of Bacillus species: 100%
[8]; 60 minutes contact
  spores decayed: 100%
[8]; 120 min contact
  Spore decay rate, Spores of Bacillus species: 100%
[9]; 1 min contact
  Spore decay rate, Spores of Clostridium species: 0%
[9]; 5 min contact
  Spore decay rate, Spores of Clostridium species: 5%
[9]; 10 min contact
  Spore decay rate, Spores of Clostridium species: 20%
[9]; 30 min contact
  Spore decay rate, Spores of Clostridium species: 30%
[9]; 60 min contact
  Spore decay rate, Spores of Clostridium species: 100%
[9]; 60 minutes contact
  spores decayed: 100%
[9]; 120 min contact
  Spore decay rate, Spores of Clostridium species: 100%

## C/C=C/C=C/C(=O)O [Sorbic acid]
S. aureus 209P; [10]
  (a) Antiproliferative activity, concentration: 20~200 ppm
  (b) Bacteriostatic activity, concentration: 150 ppm>
[2]; 50 ppm, 5 min
  Death rate: 0
[2]; 50 ppm, 10 min
  Death rate: 0
[2]; 50 ppm, 15 min
  Death rate: 0
[2]; 50 ppm, 30 min
  Death rate: 2
[2]; 50 ppm, 60 min
  Death rate: 5
[2]; 50 ppm, 90 min
  Death rate: 10
[2]; 50 ppm, 120 min
  Death rate: 15
[2]; 200 ppm, 5 min
  Death rate: 0
[2]; 200 ppm, 10 min
  Death rate: 0
[2]; 200 ppm, 15 min
  Death rate: 0
[2]; 200 ppm, 30 min
  Death rate: 2
[2]; 200 ppm, 60 min
  Death rate: 7
[2]; 200 ppm, 90 min
  Death rate: 12
[2]; 200 ppm, 120 min
  Death rate: 18
[2]; 500 ppm, 5 min
  Death rate: 0
[2]; 500 ppm, 10 min
  Death rate: 0
[2]; 500 ppm, 15 min
  Death rate: 1
[2]; 500 ppm, 30 min
  Death rate: 3
[2]; 500 ppm, 60 min
  Death rate: 10
[2]; 500 ppm, 90 min
  Death rate: 15
[2]; 500 ppm, 120 min
  Death rate: 20
E. coli O-157 [3]
  (a) Antiproliferative activity, concentration: 20~200 ppm
  (b) Bacteriostatic activity, concentration: 200 ppm>

## O.O.O.O.O.O.O.O=S(=O)([O-])[O-].[Zn+2] [Zn^2+, ZnSO4•7H2O]
S. aureus 209P; metal ion in growth medium
  (a) Antiproliferative activity, concentration: 12~18 ppm
  (b) Bacteriostatic activity, concentration: 16~200 ppm
  (c) Bactericidal activity, concentration: 200 ppm>
  Acceleration of growth, concentration: 10 ppm<
E. coli O-157 [1]
  (a) Antiproliferative activity, concentration: 10~15 ppm
  (b) Bacteriostatic activity, concentration: 15~250 ppm
  (c) Bactericidal activity, concentration: 250 ppm>
  Acceleration of growth, concentration: 10 ppm<
